Patent publication US6706747B2, “Conformationally rigid bicyclic and adamantane derivatives useful as α2-adrenergic blocking agents” (Allergan, Inc., priority 1994, dated 2004)
Read-outs that look alike come from different tables or passages of the source.

Key:
α1 = assay: Radioligand binding, [3H]prazosin, human cerebral cortex (HCC) membranes; settings: 22° C., 30 minutes
Description: Tissue preparation: Membrane suspensions were prepared from human cerebral cortex (HCC) obtained from the UCI Organ and Tissue Bank and rat kidney cortex (RKC). Briefly, tissues (1 g) were homogenized in 25 ml of iced-cold 5 mM tris, pH 7.4 with a Polytron homogenizer for 30 secs at setting# 7, and centrifuged for. 10-12 minutes at 300×g at 4° C. The supernatant was filtered: through 2 layers of gauze and diluted 1:2 with 50 mM Tris-HCI buffer, pH 7.4, then centrifuged at 49,000×g for 20 minutes. The pellet fraction was washed 3 times (resuspended in Tris-HCl buffer and centrifuged for 20 minutes at 49,000×g). The pellet was then stored at −80° C. until the binding assay.
(§1) Binding studies: The radioligands [^3H]rauwolscine (specific activity 80 Ci/mmol) and [^3H]prazosin (specific activity 76 Ci/mmol) were obtained from New England Nuclear, Boston, Mass. Frozen membrane pellet was resuspended in 25 mM glycine/glycine, pH 7.4 and incubated with radioligand under the following conditions: CHO—C10, CHO—RNG, HT-29-[^3H]rauwolscine, 22° C., 30 minutes; RKC-[^3H]rauwolscine, 0° C., 120 minutes; and, HCC-[^3H]prazosin, 22° C., 30 minutes in a final volume of 500 μl. At the end of the incubation period, the samples were filtered through glass fiber filters (Whatman GF/B) in a 96 well cell harvester and rapidly washed four times with 4 ml of ice-cold 50 mM, Tris-HCl buffer. The filters were then oven dried and transferred to scintillation vials containing 5 ml of Beckman's Ready Protein® scintillation cocktail for counting. […] Protein concentrations were determined with a protein assay kit from Bio Rad. Binding isotherms, equilibrium dissociation and affinity constants were analyzed and determined by the non-linear least squares curve fitting programs AccuFit Competition/Saturation by Beckman.
(§2) Frozen membrane pellet was resuspended either 50 mM tris, 2 mM EGTA, 1 mM MgCl2, pH7.5 (RbKC, RbICB-[^3H]brimonidine); 50 mM tris, 0.5 mM EDTA, 5 mM NaCl, pH 7.7 (RbICB-[^3H]rauwolscine); 25 mM glycine/glycine, pH 7.4 (RtKC, CHO—C10, CH—RNG, HT-29, HCC) or 50 mM tris, 0.1 mM MnCl2, pH7.7 (RtCC). Membrane protein homogenate (75-200 μg) was incubated with radioligand under the following conditions: RbKC and RbICB-[^3H]rauwolscine, 22° C., 45 minutes; RtCC and RbICB-[^3H]brimondine, 22° C., 90 minutes; CHO—C10, CHO—RNG and HT-29-[^3H]rauwolscine, 22° C., 30 minutes; HCC—[^3H]prazosin, 22° C., 30 minutes; and, in a final volume of 250 or 500 μl. At the end of the incubation period, the samples were filtered through glass fiber filters (Whatman GF/B) in a 24 or 96 well cell harvester and rapidly washed four times with 4 mls of iced-cold 50 mM Tris-HCl buffer. The filters were then oven dried and transferred to scintillation vials containing 10 mls of, Beckman's Ready Protein® scintillation cocktail for counting. […] Protein concentrations were determined with a protein assay kit from Bio Rad. Binding isotherms, equilibrium dissociation and affinity constants were analyzed and determined by the non-linear least squares curve fitting programs EBDA (BioSoft) or AccuFit Competition/Saturation by Beckman.
The radioligands [^3H]rauwolscine (specific activity 80 Ci/mmol) and [^3H]prazosin (specific activity 76 Ci/mmol) were obtained from New England Nuclear, Boston, Mass. Frozen membrane pellet was resuspended in 25 mM glycine/glycine, pH 7.4 and incubated with radioligand under the following conditions: CHO—C10, CHO—RNG-[^3H]rauwolscine, 22° C., 30 minutes; and, HCC—[^3H]prazosin, 22° C., 30 minutes in a final volume of 500 ul.

[1] = target: T1, human α2A (CHO-C10) receptor (Homo sapiens, UniProt P08913); assay: Radioligand binding, [3H]rauwolscine, CHO-C10 cell membranes; settings: CHO-C10, 22° C., 30 minutes
T1 construct: expressed in transfected cells; host or cells: CHO (CHO-C10)
T1 sequence (P08913 1-465): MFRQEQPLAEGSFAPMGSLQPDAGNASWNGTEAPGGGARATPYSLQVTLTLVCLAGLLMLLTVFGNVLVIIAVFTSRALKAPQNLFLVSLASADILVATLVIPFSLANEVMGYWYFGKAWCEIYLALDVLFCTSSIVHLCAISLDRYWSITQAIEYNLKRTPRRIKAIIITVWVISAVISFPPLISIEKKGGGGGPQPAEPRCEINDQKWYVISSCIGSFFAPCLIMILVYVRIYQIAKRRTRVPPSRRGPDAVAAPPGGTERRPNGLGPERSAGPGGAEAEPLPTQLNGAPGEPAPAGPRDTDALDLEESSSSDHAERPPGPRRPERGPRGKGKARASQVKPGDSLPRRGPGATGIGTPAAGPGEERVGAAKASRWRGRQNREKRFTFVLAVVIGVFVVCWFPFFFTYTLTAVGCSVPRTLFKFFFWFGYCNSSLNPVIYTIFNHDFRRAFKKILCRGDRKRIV
Description: (§3) Cell preparation: HT-29 and chinese hamster ovary (CHO) cells expressing the human α2A (CHO—C10) receptor and CHO cells (CHO—RNG) expressing the rat α2B adrenoceptor were grown to near confluency in Dulbecco's modified Eagle's medium supplemented with 10% fetal bovine serum using standard cell culture methods. Cells were harvested by scraping and placed into cold buffer of the following composition: 50 mM Tris-HCl, 5 mM EDTA, pH 7.4). Cells were then homogenized with a Polytron homogenizer for 2×10 secs at setting # 7, arid centrifuged for 20 minutes at 49,000×g. The pellet fraction was washed (resuspended in Tris-HCl, pH 8 buffer and centrifuged for 15-20 minutes at 49,000×g) 2 times and stored at −100° C. until binding assay.
as §1, §2
(§4) Cell preparation: Chinese hamster ovary (CHO) cells expressing the human α2A (CHO—C10) and the rat α2B (CHO—RNG) adrenoceptors were grown to near confluency in Dulbecco's modified Eagle's medium supplemented with 10% fetal bovine serum using standard cell culture methods. Cells were harvested by scraping and placed into cold buffer of the following composition: 50 mM Tris-HCl, 5 mM EDTA, pH 7.4). Cells were then homogenized with a Polytron homogenizer for 2×10 secs at setting #7, and centrifuged for 20 minutes at 49,000×g.

[2] = target: T2, rat α2B adrenoceptor (CHO-RNG) (Rattus norvegicus, UniProt P19328); assay: Radioligand binding, [3H]rauwolscine, CHO-RNG cell membranes; settings: 22° C., 30 minutes
T2 construct: expressed in transfected cells; host or cells: CHO (CHO-RNG)
T2 sequence (P19328 1-453): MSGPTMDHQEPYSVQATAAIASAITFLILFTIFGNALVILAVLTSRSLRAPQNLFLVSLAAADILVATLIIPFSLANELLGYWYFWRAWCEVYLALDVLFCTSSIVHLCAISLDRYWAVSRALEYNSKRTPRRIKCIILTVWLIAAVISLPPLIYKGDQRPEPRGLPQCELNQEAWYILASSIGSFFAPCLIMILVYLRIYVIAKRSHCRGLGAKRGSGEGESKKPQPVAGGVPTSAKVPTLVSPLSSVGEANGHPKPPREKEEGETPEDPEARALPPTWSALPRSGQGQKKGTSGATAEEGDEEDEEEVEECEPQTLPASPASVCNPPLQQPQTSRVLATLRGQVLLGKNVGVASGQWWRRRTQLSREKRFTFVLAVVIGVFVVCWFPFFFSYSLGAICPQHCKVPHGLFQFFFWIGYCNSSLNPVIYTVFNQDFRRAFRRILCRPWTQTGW
Description: as §3, §1, §2, §4

[3] = read-out: Ki (nM) α2A (CHO-C10)
[4] = read-out: Ki (nM) α2B (CHO-RNG)

Ki (α1) | Ki [1, 3] | Ki [2, 4] | SMILES | Ki ([1]; Ki (nM) α2A (CHO-C10)) | Ki ([2]; Ki (nM) α2B (CHO-RNG))
24800 nM | 59 nM | 616 nM | CCC1C2CCC(C2)C1NC1=NCCO1 (centres unmarked) |  | 
> 100000 nM | 23300 nM | 20900 nM | CC(C)C1C2CCC(C2)C1N (centres unmarked) |  | 
32500 nM | 119 nM | 770 nM | C1COC(NC2CC3CCC2CC3)=N1 (centres unmarked) |  | 
> 10000 nM | 4.2 nM | 11.5 nM | C1COC(NC2CC3CCC2C3)=N1 (centres unmarked) |  | 
> 100000 nM | 67200 nM | 57100 nM | CCC1C2CCC(C2)C1N (centres unmarked) |  | 
> 10000 nM | 102 nM | 358 nM | C1COC(NC23CC4CC(CC(C4)C2)C3)=N1 [drawing 26] |  | 
1860 nM | 1.1 nM | 4.6 nM | c1cc2c(cc1C1C3CCC(C3)C1NC1=NCCO1)OCO2 (centres unmarked) |  | 
 |  |  | c1ccc(C2C3CCC(C3)C2NC2=NCCN2)cc1 (centres unmarked) | 14.3 nM | 72 nM
8600 nM | 25 nM | 256 nM | CCCC1C2CCC(C2)C1NC1=NCCO1 (centres unmarked) [drawing 17] |  | 
1600 nM | 0.6 nM | 8.3 nM | CCCC1CCCCC1NC1=NCCO1 (centres unmarked) |  | 
> 10000 nM | 368 nM | 1930 nM | CC1(C)C2CCC1(C)C(NC1=NCCO1)C2 (centres unmarked) |  | 
35000 nM | 352 nM | 1840 nM | C1COC(NC23CC4CC(CC(C4)C2)C3)=N1 [drawing 27] |  | 
8850 nM | 9.8 nM | 28.1 nM | CCCC1C2CCC(C2)C1NC1=NCCO1 (centres unmarked) [drawing 18] |  | 

SMILES | Ki (α1) | Ki [1, 3] | Ki [2, 4] | Ki ([1]; Ki (nM) α2A (CHO-C10)) | Ki ([2]; Ki (nM) α2B (CHO-RNG))
c1ccc(CCNC2=NCCO2)cc1 | 11100 nM | 1750 nM | 4170 nM |  | 
c1ccc(C2C3CCC(C3)C2NC2=NCCO2)cc1 (centres unmarked) [drawing 7] | 1860 nM | 3.1 nM | 7.8 nM |  | 
NC1C2CCC(C2)C1c1ccccc1 (centres unmarked) | 11000 nM | 6570 nM | 6100 nM |  | 
c1ccc(C2C3CCC(C3)C2NC2=NCCO2)cc1 (centres unmarked) [drawing 10] | 73 nM | 1.9 nM | 27 nM |  | 
